Results from patent US20010036944A1, “Certain benzothiazine dioxide endothelin antagonists and processes for their preparation” (priority 1997, published 2001).
Where a name gives a salt, the structure may show the parent alone. Read-outs that look alike come from different tables or passages of the source.

What was measured:
[1] = target: T1, recombinant human ETAR (HETA) (Homo sapiens, UniProt P25101); test: Radioligand binding, [125I]ET-1 to membranes of Ltk- cells expressing recombinant human ETAR (HETA)
T1 construct: expressed in transfected cells; host or cells: Ltk- cells (membrane preparation)
T1 sequence (P25101 21-427): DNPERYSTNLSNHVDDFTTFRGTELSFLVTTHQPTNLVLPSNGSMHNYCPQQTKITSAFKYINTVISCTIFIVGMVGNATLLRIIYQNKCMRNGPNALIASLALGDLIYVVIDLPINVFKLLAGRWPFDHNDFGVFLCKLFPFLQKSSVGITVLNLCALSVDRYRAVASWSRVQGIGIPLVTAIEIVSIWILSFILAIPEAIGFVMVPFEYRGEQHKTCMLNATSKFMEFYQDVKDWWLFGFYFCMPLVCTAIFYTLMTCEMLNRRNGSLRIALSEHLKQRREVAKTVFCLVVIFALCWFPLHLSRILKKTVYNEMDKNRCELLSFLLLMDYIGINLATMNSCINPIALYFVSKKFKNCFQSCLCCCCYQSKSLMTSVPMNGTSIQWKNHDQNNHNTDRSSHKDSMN
Experimental: (§1) The following cultured cells were used in binding experiments: Ltk-cells expressing recombinant human ETAR (HETA), and CHOKI cells expressing recombinant human ETBR (HETB).
(§2) Membranes were prepared from cultured cells by lysing cells in cold lysis buffer (5 mM HEPES, 2 mM EDTA, pH 7.4) and homogenizing with a Dounce “A” homogenizer. The homogenate was centrifuged at 30,000×g for 20 minutes at […]. Membrane pellets were suspended in cold buffer containing 20 mM Tris, 2 mM EDTA, 200 μM Pefabloc, 10 μM phosphoramidon, 10 μM leupeptin, 1 μM pepstatin at pH 7.4 and frozen at […] until use. Membranes were thawed and homogenized with a Brinkmann Polytron then diluted in tissue buffer containing 20 mM Tris, 2 mM EDTA, 200 μM Pefabloc, and 100 μM bacitracin (pH 7.4). Radioligand and competing ligands were prepared in binding buffer containing 20 mM Tris, 2 mM EDTA, and 0.1% BSA.
(§3) The assay was terminated by filtration over Whatman GF/B filters which were presoaked with 50 mM Tris, pH 7.4 containing 0.2% BSA and 100 μM bacitracin. Nonspecific binding was defined as binding in the presence of 100 nM ET-1.

[2] = tested on: ETA, rabbit femoral artery; test: Antagonism of ET-1 stimulated vasoconstriction (VERAA) in the rabbit femoral artery (ETA); conditions: for VERAA (pA2): ET-1 stimulated vasoconstriction, rabbit femoral artery
From the text: In Vitro Antagonism of ET-1 Stimulated Vasoconstriction (VERAA) in the Rabbit Femoral Arterv (ETA) and Sarafotoxin 6C Stimulated Vasoconstriction in the Rabbit Pulmonarv Artery (ETB)
Male New Zealand rabbits were killed by cervical dislocation and exsanguination. Femoral and pulmonary arteries were isolated, cleaned of connective tissue, and cut into 4mm rings. The endothelium was denuded by placing the rings over hypodermic tubing (32 gauge for femoral rings and 28 gauge for pulmonary rings, Small Parts, Inc., Miami, Fla.) and gently rolling them. Denuded rings were mounted in 20 mL organ baths containing Krebsbicarbonate buffer (composition in mM: NaCl, 118.2; NaHCO3, 24.8; KCl, 4.6; MgSO4 7H2O, 1.2; KH2PO4, 1.2; CaCl2 2H2O; CaNa2 EDTA, 0.026;, dextrose, 10.0), that was maintained at 37° C. and gassed continuously with 5% CO2 in oxygen (pH 7.4). Resting tension was adjusted to 3.0 g for femoral and 4.0 g pulmonary arteries; the rings were left for 90 minutes to equilibrate. Vascular rings were tested for lack of functional endothelium (ie, lack of an endotheliumdependent relaxation response to carbachol ([…]) in norepinephrine ([…]) contracted rings. Agonist peptides, ET-1 -(femoral), and S6c (pulmonary), were cumulatively added at 10-minute intervals. The ET antagonists were added 30 minutes prior to adding the agonist.

[3] = tested on: ETA, cultured rabbit renal artery vascular smooth muscle cells; test: Inhibition of ET-1 stimulated arachidonic acid release (AAR) in cultured rabbit vascular smooth muscle cells (ETA); assay type: cell-based
Experimental: In Vitro Inhibition of ET-1 Stimulated Arachidonic Acid Release (AAR) in Cultured Rabbit Vascular Smooth Muscle Cells (ETA) by the Compounds of the Invention
Antagonist activity is measured by the ability of added compounds to reduce endothelinstimulated arachidonic acid release in cultured vascular smooth muscle cells. [^3H]Arachidonic Acid Loading Media (LM) is DME/F12+0.5% FCS×0.25 mCi/mL [^3H]arachidonic acid (Amersham). Confluent monolayers of cultured rabbit renal artery vascular smooth muscle cells were incubated in 0.5 mL of the LM over 18 hours, at 37° C., in 5% CO2. The LM was aspirated and the cells were washed once with the assay buffer (Hank's BSS +10 mM HEPES +fatty acidfree BSA (1 mg/mL)), and incubated for 5 minutes with 1 mL of the prewarmed assay buffer. This solution was aspirated, followed by an additional 1 mL of prewarmed assay buffer, and further incubated for another 5 minutes. A final 5minute incubation was carried out in a similar manner. The same procedure was repeated with the inclusion of 10 μL of the test compound (1 nM to 1 μM) and 10 μL ET-1 -(0.3 nM) and the incubation was extended for 30 minutes. This solution was then collected, 10 mL of scintillation cocktail was added, and the amount of [^3H]arachidonic acid was determined in a liquid scintillation counter.

bET-1 pressor response [4] = test: Inhibition of bET-1 pressor response in dog; assay type: in vivo; conditions: Canis lupus familiaris, oral, 24 hours postdose
[5] = tested on: acute hypoxic pulmonary hypertension; test: Acute hypoxic pulmonary hypertension in the rat; assay type: in vivo; conditions: oral
bET-1 pressor response [6] = test: Inhibition of bET-1 induced pressor effect in rat; assay type: in vivo; conditions: oral
Experimental: Inhibition of bETI Induced Pressor Effect in Rat Male Sprague-Dawley (Charles River Laboratories, Kingston, Ontario, Canada) weighing 250 to 350 g are anesthetized (Inactin, 120 mg/kg, I.P.) and acutely instrumented with a carotid artery catheter to monitor arterial blood pressure and with a jugular vein catheters to administer intravenous drugs. Once instrumented, the rats are ganglionicblocked with mecamylamine (1.25 mg/kg, I.V.) to prevent hemodynamic reflexes and then challenged with big endothelin-1 (bET-1) (1.0 nmol/kg, I.V.). The peak arterial pressor response in rats pre-treated with selected compounds of invention compared to vehicletreated rats is used to determine activity expressed as % inhibition. For I.V. activity selected compounds of invention was dose 10 minutes before the bET-1 challenge, and for oral activity selected compounds of invention was administered via oral gavage 8 or 24 hours before the bET-1 challenge.

Pharmacokinetics in dog = conditions: in vivo
[7] = tested on: ETA receptor, human pulmonary artery smooth muscle cells; test: Blocking ET-1 induced Ca++ transients in human pulmonary artery smooth muscle cells; assay type: cell-based; conditions: read-out: IC50 blocking ET-1 induced Ca++ transients via the ETA receptor
[8] = target: T2, recombinant human ETBR (HETB) (Homo sapiens, UniProt P24530); test: Radioligand binding, [125I]ET-1 to membranes of CHOKI cells expressing recombinant human ETBR (HETB); conditions: [125I]ET-1 binding, human ETB, CHOKI cell membranes
T2 construct: expressed in transfected cells; host or cells: CHOKI (CHO-K1) cells (membrane preparation)
T2 sequence (P24530 27-442): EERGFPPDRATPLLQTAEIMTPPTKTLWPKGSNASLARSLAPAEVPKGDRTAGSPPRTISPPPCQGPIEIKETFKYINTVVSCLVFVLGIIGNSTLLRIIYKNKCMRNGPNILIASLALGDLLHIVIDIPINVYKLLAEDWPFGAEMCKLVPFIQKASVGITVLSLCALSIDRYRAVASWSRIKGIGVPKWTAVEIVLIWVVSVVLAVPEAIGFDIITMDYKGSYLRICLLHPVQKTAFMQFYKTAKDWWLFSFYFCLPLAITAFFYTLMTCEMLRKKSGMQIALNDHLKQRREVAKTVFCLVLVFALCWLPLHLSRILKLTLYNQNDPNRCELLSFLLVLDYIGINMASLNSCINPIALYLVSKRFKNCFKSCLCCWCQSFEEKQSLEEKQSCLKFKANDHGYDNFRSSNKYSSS
Experimental: as §1, §2, §3

Pharmacokinetics in rat = conditions: in vivo
[9] = [125I]ET-1 binding, human ETA, Ltk- cell membranes, read-out: HETA (IC50)
[10] = Oryctolagus cuniculus, VSMC, read-out: AARA (IC50, μM)

Row | Molecule | IC50 [1, 9] [µM] | VERAA (pA2) [2] | IC50 [8] [µM] | IC50 [3, 10] [µM] | other results
1 | 4-(7-Methoxybenzo[1,3]-dioxol-5-yl)-1,1-dioxo-2-(2-trifluoromethyl-phenyl) 1,2-dihydro 1λ^6-benzo [e][1,2thiazine-3-carboxylic acid [Example 7] | 0.003 | 7.0 |  |  | IC50 ([3]; ET-1 (0.3 nM) stimulated arachidonic acid release, rabbit renal artery VSMC, read-out: AARA (IC50)): 0.0045 µM
2 | CCc1cc(C2=C(C(=O)O)N(c3ccccc3C(F)(F)F)S(=O)(=O)c3ccccc32)cc2c1OCO2 [Example 10, 4-(7-Ethylbenzo[1,3]dioxol-5yl)-1,1 dioxo-2-(2-trifluoromethyl-phenyl) 1,2-dihydro1λ^6-benzo[e]11.2]thiazine-3-carboxylic acid, sodium salt] |  | 7.7 | 2.2 |  | inhibition at 15 mg/kg (bET-1 pressor response [4]): 25%; ED50 ([5]; dose dependent, read-out: ED50, inhibition of acute hypoxic pulmonary hypertension): 0.8 mg/kg; EC50 ([5]; plasma concentration, read-out: plasma EC50, inhibition of acute hypoxic pulmonary hypertension): 0.046 µg/mL; inhibition at 10 mg/kg (bET-1 pressor response [6]; 10 mg/kg, 8 hours postdose): 44%; inhibition at 30 mg/kg (bET-1 pressor response [6]; 30 mg/kg, 24 hours postdose): 48%; IC50 ([1]; read-out: IC50 of ET-1 binding to human ETA receptors): 0.0006 µM; half-life (Pharmacokinetics in dog): 2.2 h; bioavailability (Pharmacokinetics in dog; oral): 100%; IC50 [7]: 0.0002 µM; pA2, antagonism to ET-1 stimulated vasoconstriction in rabbit femoral artery [2]: 7.7; bioavailability (Pharmacokinetics in rat; oral): 77%; half-life (Pharmacokinetics in rat; read-out: terminal elimination t1/2 (converted)): 8.5 h
3 | O=C(O)C1=C(c2ccc3c(c2)OCO3)c2ccccc2S(=O)(=O)N1c1ccccc1C(F)(F)F [Example 11, 4-Benzo[1,3]dioxol-5-yl-1,1-dioxo-2-(2-trifluoromethyl-phenyl)-1,2-dihydro-1λ^6-benzo[e][1,2]thiazine-3-carboxylic acid] | 0.011 | 6.6 | 11 |  | 
4 | Cc1ccccc1N1C(C(=O)O)=C(c2ccc3c(c2)OCO3)c2ccccc2S1(=O)=O [Example 12] | 0.061 |  | > 25 | 0.1 | 
5 | CCCc1ccccc1N1C(C(=O)O)=C(c2ccc3c(c2)OCO3)c2ccccc2S1(=O)=O [Example 14, 4-Benzo[1,3]dioxol-5-yl-2-(2-1,2-pyphenyl)-1,1-dioxo 1,2-dihydro-1λ^6-benzo[e][1,2]thiazine-3-carboxylic acid] | 0.035 | 5.8 | > 2.5 |  | 
6 | O=C(O)C1=C(c2ccc3c(c2)OCO3)c2ccccc2S(=O)(=O)N1c1ccccc1Br [Example 17, 4-Benzo[1,3]dioxol-5yl-2-(2bromophenyl)-1,1-dioxo-1,2-dihydro-1λ^6-benzo[e][1,2]thiazine-3-carboxylic acid] | 0.03 |  | > 25 | 0.031 | 
7 | O=C(O)C1=C(c2ccc3c(c2)OCO3)c2ccccc2S(=O)(=O)N1c1ccccc1Cl [Example 18, 4-Benzo [1,3]dioxol-5yl-2-(2-chlorophenyl)-1,1-dioxo-1,2-dihydro-1λ^6-benzo[e][1,2]thiazine-3-carboxylic acid] | 0.036 | 5.8 | > 25 | 0.032 | 
8 | O=C(O)C1=C(c2ccc3c(c2)OCO3)c2ccccc2S(=O)(=O)N1c1cc2c(cc1Cl)OCO2 [Example 25] | 0.11 | 6.0 | > 25 | 0.05 | 
